Measured values reported in US9006221B2, “Method of modulating ship activity” (H. Lee Moffitt Cancer Center and Reserach Institute, Inc., priority 2008, dated 2015).

How the values were obtained:
[1] = mouse, in vivo
human PBMC = assay: Human one-way MLR with pre-treated PBMC stimulators; assay type: cell-based; conditions: stimulator PBMC pre-treated 24 hr with 9.4 μM
From the text: FACS quantitation of Mac1^+Gr1^+ MIR cells in spleen (A) and lymph node (B) of C57BL/6 mice treated with the SHIP1 inhibitor (Compound), vehicle (Vehicle) or unmanipulated controls (Normal) as indicated. (C) Mixed-Leukocyte-Reactions (MLR) where splenocytes from SHIP1 inhibitor-treated C57BL6 (H2b) mice were used as stimulators for BALB/C (H2d) responders. In parallel splenocytes from either unmanipulated (Normal) or Vehicle treated C57BL6 mice were used as positive controls for the MLR. […] (D) Human PBMC were pre-treated for 24 hr with 3α-aminocholestane (Compound) or vehicle, irradiated and then used as stimulators for untreated PBMC from a different donor in a one-way MLR. […] Absolute peripheral blood granulocyte numbers were determined by an automated blood cell analyzer. […]
Mixed leukocyte reactions (MLR): Following RBC lysis, irradiated (2000 Rads) BL6 splenocytes (stimulators) at 8×10^5 cells/well were combined with BALB/c splenocytes (responders) at 4×10^5 cells/well in a one-way MLR assay. […] Incorporated [3H]thymidine was quantitated using a Packard TopCount NXT. Specific [3H]thymidine incorporation into genomic DNA was calculated as the average of the mean (±SEM) of sextuplicate wells. […]

SHIP1 = target: T1, SHIP1 (Mus musculus, UniProt Q9ES52); assay: Malachite Green phosphate release assay, SHIP1; assay type: biochemical; conditions: at 1 mM
T1 construct: The asterisk in lanes 1 and 3 indicates the ˜145 kD full-length SHIP protein; His tag (C); made in house; host or cells: E. coli Rosetta-Gami 2 (DE3) pLys
T1 sequence (Q9ES52 1-1191): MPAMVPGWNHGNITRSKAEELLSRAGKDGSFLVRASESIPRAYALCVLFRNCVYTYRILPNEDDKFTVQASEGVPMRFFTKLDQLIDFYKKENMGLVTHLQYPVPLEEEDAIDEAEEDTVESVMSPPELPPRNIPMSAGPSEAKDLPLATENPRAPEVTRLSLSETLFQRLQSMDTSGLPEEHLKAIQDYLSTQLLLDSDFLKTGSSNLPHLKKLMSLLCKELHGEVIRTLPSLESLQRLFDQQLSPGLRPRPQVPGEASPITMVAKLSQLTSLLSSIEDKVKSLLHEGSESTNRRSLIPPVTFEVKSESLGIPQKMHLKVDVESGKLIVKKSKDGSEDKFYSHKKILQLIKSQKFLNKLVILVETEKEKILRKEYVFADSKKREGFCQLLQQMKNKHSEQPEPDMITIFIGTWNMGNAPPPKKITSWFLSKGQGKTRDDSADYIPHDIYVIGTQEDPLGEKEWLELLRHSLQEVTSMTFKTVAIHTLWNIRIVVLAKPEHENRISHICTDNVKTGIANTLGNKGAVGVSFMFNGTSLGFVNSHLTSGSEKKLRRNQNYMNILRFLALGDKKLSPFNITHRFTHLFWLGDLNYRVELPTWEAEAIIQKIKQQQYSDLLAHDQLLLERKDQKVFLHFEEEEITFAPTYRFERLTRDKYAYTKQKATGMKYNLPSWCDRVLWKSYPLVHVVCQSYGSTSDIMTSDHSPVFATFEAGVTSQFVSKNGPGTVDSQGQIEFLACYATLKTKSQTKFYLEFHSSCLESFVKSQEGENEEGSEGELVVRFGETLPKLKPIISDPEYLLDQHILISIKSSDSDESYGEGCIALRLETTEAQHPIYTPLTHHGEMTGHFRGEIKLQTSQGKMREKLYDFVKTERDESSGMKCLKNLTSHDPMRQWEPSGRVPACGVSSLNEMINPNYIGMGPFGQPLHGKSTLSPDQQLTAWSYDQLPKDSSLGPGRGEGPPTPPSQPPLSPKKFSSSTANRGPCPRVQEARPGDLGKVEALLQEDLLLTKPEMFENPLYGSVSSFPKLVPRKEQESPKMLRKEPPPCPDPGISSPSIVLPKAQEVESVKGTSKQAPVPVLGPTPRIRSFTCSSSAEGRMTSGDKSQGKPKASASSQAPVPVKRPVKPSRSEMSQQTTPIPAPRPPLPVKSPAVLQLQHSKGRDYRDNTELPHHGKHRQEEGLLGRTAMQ

CC(C)CCC[C@@H](C)[C@H]1CC[C@H]2[C@@H]3CC[C@H]4C[C@H](N)CC[C@]4(C)[C@H]3CC[C@]12C [NSC23922, (3R,5S,8R,9S,10S,13R,14S,17R)-10,13-dimethyl-17-[(2R)-6-methylheptan-2-yl]-2,3,4,5,6,7,8,9,11,12,14,15,16,17-tetradecahydro-1H-cyclopenta[a]phenanthren-3-amine]
pulmonary myeloid infiltration and lung consolidation [1]: absence of the pulmonary myeloid infiltration and lung consolidation
ability of pre-treated human PBMC to prime allogeneic responses by T cells from an unrelated donor (human PBMC): significantly reduces
inhibition of SHIP1 (SHIP1): full inhibition
